The values that follow come from patent US8575203B2, “Chemical compounds” (Boehringer Ingelheim International GmbH, priority 2010, dated 2013).

The structures appear in SMILES notation.

Broadly, the IC50 is the point on the concentration scale where inhibition reaches its midpoint.

Sequence of Recombinant human PDK1 enzyme (aa 52-556) (O15530 52-556): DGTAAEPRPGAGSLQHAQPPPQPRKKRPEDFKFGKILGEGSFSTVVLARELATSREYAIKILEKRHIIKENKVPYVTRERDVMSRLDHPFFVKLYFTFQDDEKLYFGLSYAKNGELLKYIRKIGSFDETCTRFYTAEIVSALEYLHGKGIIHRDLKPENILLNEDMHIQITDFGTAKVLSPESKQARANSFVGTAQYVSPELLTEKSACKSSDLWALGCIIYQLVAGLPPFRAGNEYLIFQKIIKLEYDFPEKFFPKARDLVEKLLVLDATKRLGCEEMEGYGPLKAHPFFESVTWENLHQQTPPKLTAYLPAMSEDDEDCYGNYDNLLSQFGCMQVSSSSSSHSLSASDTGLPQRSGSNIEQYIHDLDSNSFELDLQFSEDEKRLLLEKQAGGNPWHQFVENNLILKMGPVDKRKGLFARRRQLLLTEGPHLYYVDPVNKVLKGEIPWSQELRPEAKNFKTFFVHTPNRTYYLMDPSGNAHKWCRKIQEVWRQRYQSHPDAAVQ

The target of the assay is Recombinant human PDK1 enzyme (aa 52-556) (Homo sapiens (Human), UniProt O15530). The assay is described as follows: PDK1 kinase assay. The format is biochemical. To be noted: in vitro kinase assay, His6-PDK1 (aa 52-556), PDKtide, P33-ATP. The essentials:
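Radiometric filter-binding read-out after H3PO4 stop. The reaction ran 90 min at RT, started with a 25 μM ATP/γ-33P-ATP solution, after 30 min RT preincubation of the compound series (10 μM top, 1:5 dilutions) with N-His6 PDK1 aa 52-556 (insect-cell expressed, 3.33 ng/well) and 25 μM final PDKtide.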
As for `CC(C)(C)COc1ccnc2ccc(C#CCNC(=O)c3cccn(C(CO)c4ccc(F)c(F)c4)c3=O)cc12` (stereo not shown) [I-125.14], the IC50 was determined as 60 nM. To `CN1CCC(Oc2ccnc3ccc(C#CCNC(=O)c4cccn(Cc5ccc(F)c(F)c5)c4=O)cc23)CC1` [I-112] belongs 71 nM.

In the case of `COc1ccnc2ccc(C#CCNC(=O)c3cncn(Cc4ccc(F)c(F)c4)c3=O)cc12` [I-91], the IC50 worked out at 38 nM. To `CC(C)Oc1ccnc2ccc(C#CCNC(=O)c3cncn(Cc4ccc(F)c(F)c4)c3=O)cc12` [I-97] belongs 38 nM.
